Measured values as given in ChEMBL document CHEMBL1201862, “PubChem BioAssay data set” (2004).
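96-well plates; 48 h exposure; 5 concentrations. Endpoints by linear interpolation between flanking doses. Not reached: highest tested concentration assigned. GI50 marks 50% less growth.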 The source made the active and inactive calls. No stated cut-off is given here; in the data, active = GI50 up to about 1.1 µM and inactive = higher.

Columns and labels:
Assay in all cases: growth of human tumour cells (NCI), 48 h
[1] = system: ACHN
[2] = system: CCRF-CEM
[3] = system: DU-145
[4] = system: HL-60
[5] = system: HOP-62
[6] = system: HOP-92
[7] = system: K562
[8] = system: M14
[9] = system: MDA-MB-231
[10] = system: MDA-MB-435
[11] = system: NCI-H460
[12] = system: OVCAR-5
[13] = system: PC-3
[14] = system: RPMI-8226
[15] = system: SF-268
[16] = system: SF-539
[17] = system: SN12C
[18] = system: SR
[19] = system: TK-10
[20] = system: UACC-62

Measured: GI50

CC(=O)OCC1OC(n2c(S)nc(-c3ccccc3)c(C#N)c2=O)C(OC(C)=O)C(OC(C)=O)C1OC(C)=O (stereo not drawn)
inactive: [1] > 100 µM | [2] > 100 µM | [3] > 100 µM | [4] > 100 µM | [5] > 100 µM | [6] > 100 µM | [7] > 100 µM | [8] > 100 µM | [9] > 100 µM | [10] > 100 µM | [11] > 100 µM | [12] > 100 µM | [13] > 100 µM | [14] > 100 µM | [15] > 100 µM | [16] > 100 µM | [17] > 100 µM | [18] > 100 µM | [19] > 100 µM | [20] > 100 µM

CCOC(=O)C(=Cn1c(=S)[nH]c2ccc([N+](=O)[O-])cc21)C(=O)OCC
inactive: [1] > 100 µM | [2] > 100 µM | [3] > 100 µM | [4] > 100 µM | [5] > 100 µM | [6] > 100 µM | [7] > 100 µM | [8] > 100 µM | [9] > 100 µM | [10] > 100 µM | [11] > 100 µM | [12] > 100 µM | [13] > 100 µM | [14] > 100 µM | [15] > 100 µM | [16] > 100 µM | [17] > 100 µM | [18] > 100 µM | [19] > 100 µM | [20] > 100 µM

OC1CCCCCCCCCCC1SCCCCl (stereo not drawn)
inactive: [1] > 100 µM | [3] > 100 µM | [4] > 100 µM | [5] > 100 µM | [6] > 100 µM | [7] > 100 µM | [8] > 100 µM | [9] > 100 µM | [10] > 100 µM | [11] > 100 µM | [12] > 100 µM | [13] > 100 µM | [14] > 100 µM | [15] > 100 µM | [16] > 100 µM | [17] > 100 µM | [18] > 100 µM | [19] > 100 µM | [20] > 100 µM

O=C1/C(=C/c2cccnc2)C(n2cccc2)c2c(Br)sc(Br)c21 (stereo not drawn)
inactive: [1] 3.28 µM | [2] 1.93 µM | [3] 1.94 µM | [4] 1.83 µM | [5] 2.73 µM | [6] 2.01 µM | [7] 2.17 µM | [8] 2.15 µM | [9] 1.8 µM | [10] 1.73 µM | [11] 4.16 µM | [12] 15 µM | [13] 2.14 µM | [14] 1.95 µM | [15] 2.13 µM | [16] 4.26 µM | [17] 3.94 µM | [18] 1.81 µM | [19] 1.69 µM | [20] 2 µM

CCOC(=O)CCC(NC(=O)c1ccc(Nc2nc3ccccc3nc2-c2cccs2)cc1)C(=O)OCC (stereo not drawn)
inactive: [1] 31 µM | [2] 11.4 µM | [3] 29.8 µM | [4] 5.21 µM | [5] > 100 µM | [6] 29.8 µM | [7] 12.1 µM | [8] > 100 µM | [9] 27.3 µM | [10] 30.2 µM | [11] 25.1 µM | [12] > 100 µM | [13] 38.5 µM | [14] 7.53 µM | [15] 27.1 µM | [16] 32.7 µM | [17] 22.1 µM | [18] 11.8 µM | [19] 21.2 µM | [20] 23.7 µM

CN(C)CCOc1ccc(-c2c(Oc3ccc(Cl)cc3)c(=O)oc3ccccc23)cc1
inactive: [1] 18.6 µM | [2] 4.41 µM | [3] 10.5 µM | [4] 5.61 µM | [5] 21.9 µM | [6] 19.5 µM | [7] 3.84 µM | [8] 2.21 µM | [9] 7.78 µM | [10] 2.67 µM | [11] 7.35 µM | [12] 15.8 µM | [13] 6.64 µM | [14] 8.43 µM | [15] 8.69 µM | [16] 9.84 µM | [17] 13.7 µM | [18] 4.09 µM | [19] 10.4 µM | [20] 4.97 µM

C#CCN(Cc1ccc2nc(OC)c(OC)nc2c1)c1cc(OC)c(OC)c(OC)c1
inactive: [1] 21 µM | [2] 34.9 µM | [3] 27.6 µM | [4] 12.7 µM | [5] 22.9 µM | [6] 7.43 µM | [7] 3.98 µM | [8] 22.1 µM | [9] 12.1 µM | [10] 6.59 µM | [11] 20 µM | [12] 40.2 µM | [13] 26.1 µM | [14] 5.6 µM | [15] 25.1 µM | [16] 18.5 µM | [17] 18.2 µM | [18] 26.5 µM | [19] 35.5 µM | [20] 18.9 µM

CC(=O)OC1(C)C=CC(=O)C=C1
inactive: [1] 17.5 µM | [2] 44.1 µM | [3] 36.6 µM | [4] 27.9 µM | [5] 27.1 µM | [6] 39 µM | [7] 50.8 µM | [8] 32.6 µM | [9] 24.2 µM | [10] 29.9 µM | [11] 25.9 µM | [12] 40.8 µM | [13] 27.4 µM | [14] 37.3 µM | [15] 31 µM | [16] 18.3 µM | [17] 62.7 µM | [18] 32.7 µM | [19] 22.5 µM | [20] 17.1 µM

N#CCCC(CCC#N)(CCC#N)NO
inactive: [1] > 100 µM | [3] > 100 µM | [4] > 100 µM | [6] > 100 µM | [7] > 100 µM | [8] > 100 µM | [9] > 100 µM | [10] > 100 µM | [11] > 100 µM | [12] > 100 µM | [13] > 100 µM | [14] > 100 µM | [15] > 100 µM | [16] > 100 µM | [17] > 100 µM | [18] > 100 µM | [19] > 100 µM | [20] > 100 µM

CCOC(=O)/C(C(C)=O)=C(\OC(C)=O)c1ccncc1C(=O)O
inactive: [1] > 100 µM | [2] > 100 µM | [3] > 100 µM | [4] > 100 µM | [6] > 100 µM | [7] > 100 µM | [8] > 100 µM | [9] > 100 µM | [10] > 100 µM | [11] > 100 µM | [12] > 100 µM | [13] > 100 µM | [14] > 100 µM | [15] > 100 µM | [16] > 100 µM | [17] > 100 µM | [18] > 100 µM | [20] > 100 µM

Oc1c(Cl)c(Cl)c(Cl)c(Cl)c1Cl [PENTACHLOROPHENOL]
inactive: [1] 18.9 µM | [2] 21.3 µM | [3] 21.4 µM | [4] 17.5 µM | [5] 25.4 µM | [6] 18.6 µM | [7] 26.4 µM | [8] 20.9 µM | [9] 13.3 µM | [10] 20.7 µM | [11] > 100 µM | [12] 18.4 µM | [13] 18.9 µM | [14] 22.1 µM | [15] 31.1 µM | [16] 21.5 µM | [17] 19.1 µM | [18] 26.1 µM | [19] > 100 µM | [20] 16.4 µM

CCC1OC2C(CC=C(C)C)=C3OC(C)(O)C(C)(CC)C(OC(C)=O)C3=C3OC(=O)C=C1C32 (stereo not drawn)
inactive: [1] 39.6 µM | [2] 36 µM | [3] 39.6 µM | [4] 75 µM | [5] 23.6 µM | [6] 59.4 µM | [7] 32.8 µM | [8] 30.5 µM | [9] 19.8 µM | [10] 21.3 µM | [11] 30.9 µM | [12] 22 µM | [13] 38.8 µM | [14] 22.1 µM | [15] 31.4 µM | [16] 19.6 µM | [17] 20.4 µM | [18] 31.8 µM | [19] 34.4 µM | [20] 18.8 µM

CC(Cc1ccc(O)cn1)(NC(=O)c1ccccc1)C(=O)O (stereo not drawn)
inactive: [1] > 100 µM | [2] > 100 µM | [3] > 100 µM | [4] > 100 µM | [5] > 100 µM | [6] 74 µM | [7] > 100 µM | [8] > 100 µM | [9] > 100 µM | [10] > 100 µM | [11] > 100 µM | [12] > 100 µM | [13] > 100 µM | [14] > 100 µM | [15] > 100 µM | [16] > 100 µM | [18] > 100 µM | [19] > 100 µM | [20] > 100 µM

Cc1ccc(C(=O)NN=C(/N=N/c2cccc(C)c2)c2ccc(N(C)C)cc2)cc1
inactive: [1] > 100 µM | [2] > 100 µM | [3] 28.4 µM | [4] > 100 µM | [6] 51.8 µM | [7] > 100 µM | [8] > 100 µM | [9] > 100 µM | [10] > 100 µM | [11] > 100 µM | [12] > 100 µM | [13] > 100 µM | [14] > 100 µM | [15] > 100 µM | [16] > 100 µM | [17] > 100 µM | [18] > 100 µM | [19] > 100 µM | [20] > 100 µM
